Assay results as given in patent US20090088439A1, “Diazinane Compounds” (priority 2007, published 2009).

Biological target: T1, GABAB(1A,2) receptor heterodimer (Homo sapiens, UniProt O75899+Q9UBS5)
T1 construct: expressed in transfected cells; membrane preparation
Test: GTPγS35 radioligand filtration-binding assay for determination of PAM potency
Type: biochemical
Conditions: membranes of CHO-K1 cells expressing GABABR1a/GABABR2; concentration required to reduce GABA's EC50 by 50%; PAM at 10, 1, 0.1 and 0.01 μM; read-out: Mean (EC50 derived) PAM EC50
Text: The effect of GABA in an automated GTPγS^35 radioligand filtration-binding assay in CHO cells expressing the GABAB(1A,2) receptor heterodimer was studied in the presence or absence of the positive allosteric modulator test compounds. […]
(§1) The GABAB receptor is a G-protein coupled receptor. Binding of a ligand activates the receptor leading to recruitment of G-protein and a substitution of the G-protein bound GDP to GTP. The G-protein becomes active. The G-protein is inactivated by hydrolysis of GTP to GDP. G-proteins are membrane bound and therefore present in membrane preparations.
(§2) In the GTPγS^35 assay, GTP is not present but instead GTPγS^35 where one of the phosphate groups are substituted to a sulphur group which cannot be hydrolysed. Upon activation of the receptor, radiolabelled GTPγS^35 replaces the GDP. The complex cannot be inactivated and the radiolabelled complex is accumulating. At the end of the assay, the reaction mixture is filtered through a membrane-binding filter. Excess GTPγS^35 is removed by washing and the membrane bound S^35, which correlates to the degree of receptor activation, is measured with a β-Liquid Scintillation Counter.
GABABR1a and GABABR2 were cloned from human brain cDNA and subcloned into pCI-Neo (Promega) and pALTER-1 (Promega), respectively.
In order to optimise the Kozak consensus sequence of GABABR2, in situ mutagenesis was performed using the Altered Sites Mutagenesis kit according to manufacturer's instruction (Promega) with the following primer,
5′-[…]-3′. The optimised GABABR2 was then restricted from pALTER-1 with Xho I+Kpn I and subcloned into the mammalian expression vector pcDNA3.1(−)/Zeo (Invitrogen) to produce the final construct, pcDNA3.1(−)/Zeo-GABABR2.
For generation of stable cell lines, CHO-K1 cells were grown in Nut mix F-12 (Ham) media supplemented with 10% FBS, 100 U/ml Penicillin and 100 μg/ml Streptomycin at 37° C. in a humidified CO2-incubator. The cells were detached with 1 mM EDTA in PBS and 1 million cells were seeded in 100 mm petri dishes. After 24 hours the culture media was replaced with OptiMEM and incubated for 1 hour in a CO2-incubator.
For generation of a cell line expressing the GABABR1a/GABABR2 heterodimer, GABABR1a plasmid DNA (4 μg) GABABR2 plasmid DNA (4 μg) and lipofectamine (24 μl) were mixed in 5 ml OptiMEM and incubated for 45 minutes at room temperature. The cells were exposed to the transfection medium for 5 hours, which then was replaced with culture medium. The cells were cultured for an additional 10 days before selection agents (300 μg/ml hygromycin and 400 μg/ml geneticin) were added. Twenty-four days after transfection, single cell sorting into 96-well plates by flow cytometry was performed using a FACS Vantage SE (Becton Dickinson, Palo Alto, Calif.). After expansion, the GABAB receptor functional response was tested by measuring the GABAB receptor dependent release of intracellular calcium in a fluorescence imaging plate reader (FLIPR). The clone with the highest functional response was collected, expanded and then subcloned by single cell sorting. The clonal cell line with the highest peak response in the FLIPR was used in the present study.
GTPγS^35 radioligand filtration-binding assays were performed using an automated workstation at 30° C. for 1 hour in assay buffer (50 mM HEPES, 40 mM NaCl, 1 mM MgCl2×6H2O, 30 μg/mL Saponin, pH 7.4 at RT) containing 0.025 μg/μL of membrane protein (prepared from the cell line described above), 10 μM GDP and 0.55 nCi/μL GTPγS^35 in a final volume of 60 μL. The reaction was started by the addition of serially diluted GABA (final start concentration 1 mM dilution factor 3) in the presence or absence of four concentrations (final conc 10, 1, 0.1 and 0.01 μM) of PAM. The reaction was terminated and membranes collected by addition of ice-cold wash buffer (50 mM Tris-HCl, 5 mM MgCl2×6H2O, 50 mM NaCl, pH 7.4 at 4° C.) followed by rapid filtration under vacuum through a MultiScreen HTS 384 FB filter plate. […]

T1 sequence (Q9UBS5 15-961 limits assumed): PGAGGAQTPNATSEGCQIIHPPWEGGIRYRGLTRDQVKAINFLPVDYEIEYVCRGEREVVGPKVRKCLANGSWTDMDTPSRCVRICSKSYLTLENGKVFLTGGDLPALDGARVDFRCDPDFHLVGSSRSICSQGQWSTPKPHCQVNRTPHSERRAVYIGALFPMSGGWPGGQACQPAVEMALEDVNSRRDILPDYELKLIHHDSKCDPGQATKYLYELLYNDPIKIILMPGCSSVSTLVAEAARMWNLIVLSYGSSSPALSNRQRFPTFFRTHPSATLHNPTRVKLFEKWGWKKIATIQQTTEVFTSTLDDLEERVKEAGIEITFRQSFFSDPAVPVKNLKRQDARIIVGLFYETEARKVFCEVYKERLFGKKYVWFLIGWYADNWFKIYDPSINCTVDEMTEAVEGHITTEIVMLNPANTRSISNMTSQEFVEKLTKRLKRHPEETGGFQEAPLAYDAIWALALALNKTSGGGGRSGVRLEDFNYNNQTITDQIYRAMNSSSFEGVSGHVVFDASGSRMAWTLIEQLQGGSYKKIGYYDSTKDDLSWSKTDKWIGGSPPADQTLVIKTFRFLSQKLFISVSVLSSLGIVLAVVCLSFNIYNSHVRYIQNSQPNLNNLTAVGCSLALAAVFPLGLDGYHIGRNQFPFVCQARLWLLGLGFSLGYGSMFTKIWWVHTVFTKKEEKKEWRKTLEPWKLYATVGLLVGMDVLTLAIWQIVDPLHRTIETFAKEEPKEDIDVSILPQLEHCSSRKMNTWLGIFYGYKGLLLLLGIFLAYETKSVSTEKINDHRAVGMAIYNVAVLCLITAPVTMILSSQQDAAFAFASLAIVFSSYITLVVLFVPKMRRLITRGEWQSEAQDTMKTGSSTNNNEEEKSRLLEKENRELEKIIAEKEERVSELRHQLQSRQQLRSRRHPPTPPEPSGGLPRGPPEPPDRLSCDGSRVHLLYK
T1 sequence (O75899 42-941): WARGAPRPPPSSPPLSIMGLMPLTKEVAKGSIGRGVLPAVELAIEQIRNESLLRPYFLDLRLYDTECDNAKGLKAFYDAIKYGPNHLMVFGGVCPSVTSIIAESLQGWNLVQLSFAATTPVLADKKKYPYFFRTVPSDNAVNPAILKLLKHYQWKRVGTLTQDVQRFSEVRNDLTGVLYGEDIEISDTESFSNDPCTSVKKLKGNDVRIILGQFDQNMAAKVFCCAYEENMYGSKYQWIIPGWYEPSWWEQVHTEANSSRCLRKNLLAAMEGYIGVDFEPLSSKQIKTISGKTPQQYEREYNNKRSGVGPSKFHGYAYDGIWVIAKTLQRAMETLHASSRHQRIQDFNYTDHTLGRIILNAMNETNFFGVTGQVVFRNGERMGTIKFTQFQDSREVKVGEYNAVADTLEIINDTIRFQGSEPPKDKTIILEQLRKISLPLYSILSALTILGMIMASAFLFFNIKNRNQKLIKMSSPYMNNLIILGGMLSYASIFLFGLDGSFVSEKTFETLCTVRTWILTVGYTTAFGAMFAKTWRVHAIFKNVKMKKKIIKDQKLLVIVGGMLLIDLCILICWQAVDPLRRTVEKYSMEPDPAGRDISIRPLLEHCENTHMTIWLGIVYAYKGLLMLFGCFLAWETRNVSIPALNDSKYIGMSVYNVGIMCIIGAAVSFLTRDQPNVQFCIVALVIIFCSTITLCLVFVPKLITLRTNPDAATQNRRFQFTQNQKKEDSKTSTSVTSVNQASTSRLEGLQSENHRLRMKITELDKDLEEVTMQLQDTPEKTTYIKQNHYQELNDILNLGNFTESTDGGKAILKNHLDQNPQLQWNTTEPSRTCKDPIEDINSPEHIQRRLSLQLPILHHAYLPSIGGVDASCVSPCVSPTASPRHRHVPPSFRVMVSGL

Row | Compound | EC50 [nM]
1 | CCCn1c(=O)n(Cc2ccc(Cl)cc2)c(=O)c2nccnc21 [Example 2, 3-(4-chlorobenzyl)-1-propylpteridine-2,4(1H,3H)-dione] | 4300
2 | O=c1c2nccnc2n(Cc2ccc(Cl)cc2)c(=O)n1Cc1ccc(Cl)cc1 [Example 8, 1,3-bis(4-chlorobenzyl)pteridine-2,4(1H,3H)-dione] | 2400
3 | COc1ccc(Cn2c(=O)n(Cc3ccc(Cl)cc3)c(=O)c3nccnc32)c(OC)c1 [Example 1, 3-(4-chlorobenzyl)-1-(2,4-dimethoxybenzyl)pteridine-2,4(1H,3H)-dione] | 6000
4 | O=c1c2nccnc2n(CC2CCCCC2)c(=O)n1Cc1ccc(Cl)cc1 [Example 4, 3-(4-chlorobenzyl)-1-(cyclohexylmethyl)pteridine-2,4(1H,3H)-dione] | 600
5 | C[Si](C)(C)CCn1c(=O)n(Cc2ccc(Cl)cc2)c(=O)c2nccnc21 [Example 3, 3-(4-chlorobenzyl)-1-[2-(trimethylsilyl)ethyl]pteridine-2,4(1H,3H)-dione] | 600
6 | O=c1c2nccnc2n(Cc2ccccc2)c(=O)n1Cc1ccc(Cl)cc1 [Example 7, 1-benzyl-3-(4-chlorobenzyl)pteridine-2,4(1H,3H)-dione] | 5100
7 | COc1ccc(Cn2c(=O)n(Cc3ccc(Cl)cc3)c(=O)c3nccnc32)cc1 [Example 9, 3-(4-chlorobenzyl)-1-(4-methoxybenzyl)pteridine-2,4(1H,3H)-dione] | 7000
8 | O=C(c1ccccc1)c1ccc(Cn2c(=O)n(Cc3ccc(Cl)cc3)c(=O)c3nccnc32)cc1 [Example 10, 1-(4-benzoylbenzyl)-3-(4-chlorobenzyl)pteridine-2,4(1H,3H)-dione] | 800
9 | CC(C)(C)C(=O)Cn1c(=O)n(Cc2ccc(Cl)cc2)c(=O)c2nccnc21 [Example 5, 3-(4-chlorobenzyl)-1-(3,3-dimethyl-2-oxobutyl)pteridine-2,4(1H,3H)-dione] | 2900
10 | O=c1c2nccnc2n(CCc2ccccc2)c(=O)n1Cc1ccc(Cl)cc1 [Example 11, 3-(4-chlorobenzyl)-1-(2-phenylethyl)pteridine-2,4(1H,3H)-dione] | 1300

Biological target: T2, GABABR1a/GABABR2 heterodimer (Homo sapiens, UniProt O75899+Q9UBS5)
T2 construct: expressed in transfected cells; membrane preparation
Test: GTPγS35 radioligand filtration-binding assay for determination of agonist potency
Type: biochemical
Conditions: membranes of CHO K1 Flp-In cells expressing GABABR1a/GABABR2; compound alone
Experimental: The potency and efficacy of the compounds acting as agonists at the GABAB receptor was also determined in a automated GTPγS^35 radioligand filtration-binding assay.
as §1, §2
The human GABABR1a was subcloned into pIRESneo3 (Clontech) using GABABR1a construct as a template (refseqN NM001470). GABABR2 was subcloned into pCDNA5/FRT (Invitrogen) using GABABR2 construct as a template (refseqN NM005458). The Kozak sequence GCCACC was introduced before the start codon in both constructs.
For generation of stable cell lines, CHO K1 Flp-In cells (Invitrogen) were grown in DMEM/F 12 1:1 media supplemented with 10% FBS at 37° C. in a humidified CO2-incubator. The cells were detached with Accutase and 1.5 million cells were seeded into T75 flasks. After 24 h, transfection of the cells were performed with the GABABR2 construct. For generation of cell lines expressing GABABR2, GABABR2 plasmid (1 μg) and pOG44 from Invitrogen (9 μg) were mixed with 30 μl Lipofectamine 2000 in 600 μl OptiMEM for 20 minutes. The cells were exposed to transfection medium for 5 hours and was then replaced with culture medium. After 2 days 0.5 mg/ml Hygromycin were added to culture medium. The cells were cultured for an additional 10 days to establish a stable cell mix expressing GABABR2. For generation of a cell line expressing the GABABR1a/GABABR2 heterodimer, GABABR1a plasmid DNA (8 μg) and Lipofectamine (30 μl) were mixed in 600 μl OptiMEM and incubated for 20 minutes before added to CHO-Flp-In cells expressing GABABR2. After 2 days additional selection agent was added (0.8 mg/ml Geneticin). The cells were cultured for another 10 days to generate a stable mixed population expressing the GABABR1a/GABABR2 heterodimer. The cell line was analyzed by GTPγS^35 assay with GABA as agonist.
GTPγS^35 radioligand filtration-binding assays were performed using an automated workstation at 30° C. for 1 hour in assay buffer (50 mM HEPES, 40 mM NaCl, 1 mM MgCl2×6H2O, 30 μg/mL Saponin, pH 7.4 at RT) containing 0.025 μg/μL of membrane protein (prepared from the cell line described above), 10 μM GDP and 0.55 nCi/μL GTPγS^35 in a final volume of 60 μL. The reaction was started by the addition of compounds (GABA was always included as a positive control), start concentration 100 μM dilution factor 3. The reaction was terminated and membranes collected by addition of ice-cold wash buffer (50 mM Tris-HCl, 5 mM MgCl2×6H2O, 50 mM NaCl, pH 7.4 at 4° C.) followed by rapid filtration under vacuum through a MultiScreen HTS 384 FB filter plate. Repeated washing of the filters with ice-cold wash buffer washed the unbound radioligand away. The filter plates were dried for 1½-2 hours at 50° C., then 8 μL scintillation liquid was added per well followed by incubation at RT for at least 20 minutes before bound radioactivity was determined using a β-Liquid Scintillation Counter (1450 Microbeta Trilux, Wallac, Finland)
100% activation (max) is calculated as the mean value for wells containing 1 mM GABA. […]

T2 sequence (Q9UBS5 15-961 limits assumed): as the sequence (Q9UBS5 15-961 limits assumed) above
T2 sequence (O75899 42-941): as the sequence (O75899 42-941) above

Row | Compound | EC50 [nM]
11 | N#Cc1cccc(Cn2c(=O)n(Cc3ccc(Cl)cc3)c(=O)c3nc4c(nc32)CCCC4)c1 [Example 16, 3-{[3-(4-chlorobenzyl)-2,4-dioxo-3,4,6,7,8,9-hexahydrobenzo[g]pteridin-1(2H)-yl]methyl}benzonitrile] | 1000
12 | C=CCn1c(=O)n(Cc2ccc(Cl)cc2)c(=O)c2nc3c(nc21)CCCC3 [Example 14, 1-allyl-3-(4-chlorobenzyl)-6,7,8,9-tetrahydrobenzo[g]pteridine-2,4(1H,3H)-dione] | 1600
13 | O=c1c2nc3c(nc2n(CC(O)C(F)(F)F)c(=O)n1Cc1ccc(Cl)cc1)CCCC3 (centres unmarked) [Example 19, 3-(4-chlorobenzyl)-1-(3,3,3-trifluoro-2-hydroxypropyl)-6,7,8,9-tetrahydrobenzo[g]pteridine-2,4(1H,3H)-dione] | 1300
14 | CCCn1c(=O)n(Cc2ccc(Cl)cc2)c(=O)c2nc(CC)c(CC)nc21 [Example 13, 3-(4-chlorobenzyl)-6,7-diethyl-1-propylpteridine-2,4(1H,3H)-dione] | 800
15 | O=c1c2nc3c(nc2n(CCn2cccc2)c(=O)n1Cc1ccc(Cl)cc1)CCCC3 [Example 17, 3-(4-chlorobenzyl)-1-[2-(1H-pyrrol-1-yl)ethyl]-6,7,8,9-tetrahydrobenzo[g]pteridine-2,4(1H,3H)-dione] | 1600
16 | CCCn1c(=O)n(Cc2ccc(Cl)cc2)c(=O)c2c1nc1c([n+]2[O-])CCCC1 [Example 21, 3-(4-chlorobenzyl)-1-propyl-6,7,8,9-tetrahydrobenzo[g]pteridine-2,4(1H,3H)-dione 5-oxide] | 7700
17 | CCCn1c(=O)n(Cc2ccc(Cl)cc2)c(=O)c2nc3c(nc21)C(C)CC3C (mixture of isomers) [Example 12, 3-(4-chlorobenzyl)-6,8-dimethyl-1-propyl-7,8-dihydro-1H-cyclopenta[g]pteridine-2,4(3H,6H)-dione] | 1400
18 | CCCn1c(=O)n(Cc2ccc(Cl)cc2)c(=O)c2nc3c(nc21)CCC3 [Example 22, 3-(4-chlorobenzyl)-1-propyl-7,8-dihydro-1H-cyclopenta[g]pteridine-2,4(3H,6H)-dione] | 3700
19 | CC(C)(C)C(=O)Cn1c(=O)n(Cc2ccc(Cl)cc2)c(=O)c2nc3c(nc21)CCCC3 [Example 18, 3-(4-chlorobenzyl)-1-(3,3-dimethyl-2-oxobutyl)-6,7,8,9-tetrahydrobenzo[g]pteridine-2,4(1H,3H)-dione] | 500
20 | 6-tert-butyl-3-(4-chlorobenzyl)-1-propylpteridine-2,4(1H,3H)-dione and 7-tert-butyl-3-(4-chlorobenzyl)-1-propylpteridine-2,4(1H,3H)-dione [Example 23] | 2200
